According to paper PMC6941823, “A dispensable paralog of succinate dehydrogenase subunit C mediates standing resistance towards a subclass of SDHI fungicides in Zymoseptoria tritici” (PLoS Pathogens, 2019):
Where two headings read alike, the source gives them in different places.

Legend:
[1] = test system: Zymoseptoria tritici field and genetically modified strains; assay: Liquid culture assay for fungicide sensitivity determination; assay type: cell-based; conditions: Zymoseptoria tritici
Summary of the method: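 EC50s from liquid culture growth tests with field isolates and modified strains. Population monitoring used final concentrations 100 to 0.0001 mg.L^-1 in 10x steps (7 levels plus DMSO control); refined panel profiling used 0.5 mM to 0.47 nM in 4x steps (11 levels plus DMSO).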

[2] = test system: Zymoseptoria tritici on wheat variety Riband; assay: In planta fungicide dose response; assay type: in vivo; conditions: for In planta EC50: application one day before infection
Description: The influence of the ZtSDHC3-driven SHA-SDHI resistance for the control of Z. tritici during wheat infection was assessed with a small range of commercial SDHIs (Fig 4C and 4D). In planta SDHIs sensitivity assays were performed with the 06STD024 isolate and its ZtSDHC1 or ZtSDHC3 KO mutants. A control strain (705) devoid of the ZtSDHC3 gene but more aggressive than IPO323 on wheat variety Riband was also included for comparison (Fig 4C and 4D).
Wheat (Triticum aestivum) variety Riband was grown in pots (d = 6.5cm), at a density of 4 plants per pot and treated with the growth regulator CCC (Chlorcholinchlorid; Chlormequat; 5 ml / pot, 0.4% solution) 4 days after sowing. Wheat plantlets were maintained in a climatic room at 18°C, 60% humidity and under a 12h light regime (high intensity). Fungicide applications were performed on 14 days old plantlets for which leaf 2 is the fully expanded target leaf. Fungicide treatments were performed using a custom-made track sprayer adjusted at 200L.ha^-1 (Nozzle: Lechler, orange LU90-01). […] Z. tritici infections were performed using a Devilbis airbrush (spray of about 150ml.m^-2) one day after fungicide application and using an inoculum grown on V8-agar adjusted to 1.8.10^6 spores.ml^-1 in 0.05% Tween20 in MQ water. Inoculated plants were initially incubated for 72h under reduced light conditions and high humidity using towel-covered Plexiglas hoods in a climatic chamber set to 21°C/19°C day/night alternations, 80% humidity and a 14h light regime. The Plexiglas hoods were then removed until evaluation. Plants were fertilized once per week and disease evaluation performed based on disease coverage on the second leaf approximately 16–19 days after infection, once untreated plants reached 75–90% disease coverage. Each fungicide was tested at several rates to produce dose responses. There were 3 pots (4 plants each) per fungicide rate and isolate, the whole experiment was repeated 4 times. In planta EC50 were calculated using the software GraphPad Prism v6.08.

[3] = read-out: EC50 (nM) Mean, strain 06STD024, liquid culture sensitivity
[4] = read-out: EC50 (nM) Mean, strain 07STGB009, liquid culture sensitivity
[5] = read-out: EC50 (nM) Mean, strain 09STD041, liquid culture sensitivity
[6] = read-out: EC50 (nM) Mean, strain 09STD053, liquid culture sensitivity
[7] = read-out: EC50 (nM) Mean, strain 09STF011, liquid culture sensitivity
[8] = read-out: EC50 (nM) Mean, strain 09STF037, liquid culture sensitivity
[9] = read-out: EC50 (nM) Mean, strain 09STF112, liquid culture sensitivity
[10] = read-out: EC50 (nM) Mean, strain 09STIR20.3, liquid culture sensitivity
[11] = read-out: EC50 (nM) Mean, strain Flu21 (SDHC1_A84I), liquid culture sensitivity
[12] = read-out: EC50 (nM) Mean, strain IPO323, liquid culture sensitivity
[13] = read-out: EC50 (nM) Mean, strain IPO94269, liquid culture sensitivity
[14] = read-out: EC50 (nM) Mean, strain KO_SDHC1_T1, liquid culture sensitivity
[15] = read-out: EC50 (nM) Mean, strain KO_SDHC1_T3, liquid culture sensitivity
[16] = read-out: EC50 (nM) Mean, strain KO_SDHC3_T4, liquid culture sensitivity
[17] = read-out: EC50 (nM) Mean, strain KO_SDHC3_T13, liquid culture sensitivity
[18] = read-out: EC50 (nM) Mean, strain pTet::SDHC3_I78A_T1, liquid culture sensitivity
[19] = read-out: EC50 (nM) Mean, strain pTet::SDHC3_I78A_T5, liquid culture sensitivity
[20] = read-out: EC50 (nM) Mean, strain pTet::SDHC3_I78A_T15, liquid culture sensitivity
[21] = read-out: EC50 (nM) Mean, strain pTet::SDHC3_I78A_T35, liquid culture sensitivity
[22] = read-out: EC50 (nM) Mean, strain pTet::SDHC3_T1, liquid culture sensitivity
[23] = read-out: EC50 (nM) Mean, strain pTet::SDHC3_T2, liquid culture sensitivity
[24] = read-out: EC50 (nM) Mean, strain pTet::SDHC3_T3, liquid culture sensitivity
[25] = read-out: EC50 (nM) Mean, strain pTet::SDHC3_T7, liquid culture sensitivity

For `O=C(NCCc1ncc(C(F)(F)F)cc1Cl)c1ccccc1C(F)(F)F` [Fluopyram], the EC50 [1, 3] was 9360 nM, the EC50 [1, 4] was 10900 nM and the EC50 [1, 5] was 1370 nM. It also gave an EC50 [1, 6] of 558 nM, an EC50 [1, 7] of 3570 nM and an EC50 [1, 8] of 461 nM. For the same compound, the EC50 [1, 9] was 2890 nM, the EC50 [1, 10] was 419 nM and the EC50 [1, 11] was 4580 nM. It also gave an EC50 [1, 12] of 222 nM, an EC50 [1, 13] of 147 nM and an EC50 [1, 14] of 25600 nM. For the same compound, the EC50 [1, 15] was 21200 nM, the EC50 [1, 16] was 350 nM and the EC50 [1, 17] was 351 nM. The EC50 [1, 18] was 354 nM, the EC50 [1, 19] was 818 nM and the EC50 [1, 20] was 552 nM. The EC50 [1, 21] was 143 nM, the EC50 [1, 22] was 16000 nM and the EC50 [1, 23] was 14300 nM. For the same compound, the EC50 [1, 24] was 6750 nM, the EC50 [1, 25] was 24500 nM and the EC50 ([1]; read-out: Fluopyram EC50 in liquid culture, panel of ZtSDHC3 containing isolates, field isolates collected in 2009 carrying ZtSDHC3, from sensitive to resistant) was 0.3 to 3.2 µg/mL.
`CON(C(=O)c1cn(C)nc1C(F)F)[C@@H](C)Cc1c(Cl)cc(Cl)cc1Cl` [Pydiflumetofen] gave an EC50 [1, 3] of 28.2 nM, an EC50 [1, 4] of 24.5 nM and an EC50 [1, 5] of 19.8 nM. The EC50 [1, 6] was 6.4 nM, the EC50 [1, 7] was 17.8 nM and the EC50 [1, 8] was 8.1 nM. It also gave an EC50 [1, 9] of 18.7 nM, an EC50 [1, 10] of 8.1 nM and an EC50 [1, 11] of 163 nM. The EC50 [1, 12] was 4.5 nM, the EC50 [1, 13] was 4.7 nM and the EC50 [1, 14] was 377 nM. The EC50 [1, 15] was 230 nM, the EC50 [1, 16] was 5.1 nM and the EC50 [1, 17] was 5.6 nM. It also gave an EC50 [1, 18] of 4.8 nM, an EC50 [1, 19] of 6 nM and an EC50 [1, 20] of 4.9 nM. The EC50 [1, 21] was 2.9 nM, the EC50 [1, 22] was 164 nM and the EC50 [1, 23] was 160 nM. For the same compound, the EC50 [1, 24] was 108 nM, the EC50 [1, 25] was 183 nM and the “In planta EC50” value ([2]; 06STD024 ZtSDHC1 KO on wheat Riband) was 2.85 g.ha^-1. For the same compound, the “In planta EC50” value ([2]; 06STD024 ZtSDHC3 KO mutant on wheat Riband) was 0.053 g.ha^-1, the “In planta EC50” value ([2]; WT isolate 06STD024 on wheat Riband) was 1.31 g.ha^-1 and the “In planta sensitivity difference compared to the ZtSDHC3 KO mutant” value ([2]; WT isolate 06STD024 vs 06STD024 ZtSDHC3 KO) was 25 fold.
